Measured values as given in ChEMBL document CHEMBL1201862, “PubChem BioAssay data set” (2004).
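All cell lines were grown in 96-well plates and treated with compound for 48 hours. Here, GI50 denotes the concentration required for 50% inhibition of growth.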 Activity calls are given as the source filed them. No stated cut-off is given here; in the data, active = GI50 up to about 1.1 µM and inactive = higher.

Experiments:
Experiment in all cases: inhibition of tumour cell growth, NCI panel, 48 h
DLD-1 = tested on: DLD-1
DMS-114 = tested on: DMS-114
HOP-18 = tested on: HOP-18
KM-20L2 = tested on: KM-20L2
M19-MEL = tested on: M19-MEL
SNB-78 = tested on: SNB-78
XF498 = tested on: XF498
LXFL 529 = tested on: LXFL 529
RXF 631 = tested on: RXF 631

Measured: GI50

COc1cc(/C=C(/C#N)C(N)=O)ccc1O
inactive: DLD-1 > 100 µM | DMS-114 > 100 µM | HOP-18 > 40.7 µM | KM-20L2 > 100 µM | M19-MEL > 100 µM | SNB-78 > 100 µM | XF498 > 100 µM

NNC(=O)N/N=C1/C(=O)N(c2ccc(Cl)c(Cl)c2)C(=O)C(=O)C1c1nc2ccccc2o1 (stereo unspecified)
inactive: DLD-1 > 100 µM | DMS-114 > 100 µM | HOP-18 > 100 µM | KM-20L2 > 100 µM | LXFL 529 > 100 µM | M19-MEL > 100 µM | RXF 631 76.4 µM | SNB-78 > 100 µM

Cn1cc(NC(=O)c2cc(NC(=O)CCCCCCCC(=O)Nc3cc(C(=O)Nc4cc(C(=O)NCCC(=N)N)n(C)c4)n(C)c3)cn2C)cc1C(=O)NCCC(=N)N
inactive: DLD-1 30.9 µM | DMS-114 4.03 µM | HOP-18 34 µM | KM-20L2 > 100 µM | LXFL 529 12.4 µM | M19-MEL 5.43 µM | RXF 631 56.9 µM | SNB-78 35.2 µM | XF498 29.2 µM

CCCCCCCCCCCCCCNCC(OC)OC
inactive: DLD-1 14.6 µM | DMS-114 14 µM | HOP-18 13.3 µM | KM-20L2 14.4 µM | LXFL 529 16.3 µM | M19-MEL 18.1 µM | RXF 631 15.2 µM | SNB-78 17.4 µM | XF498 16.7 µM

CCCc1nc(NC#N)nc(C(=O)NC23CC4CC(CC(C4)C2)C3)c1C
inactive: DLD-1 > 100 µM | DMS-114 > 100 µM | HOP-18 > 100 µM | KM-20L2 > 100 µM | LXFL 529 > 100 µM | M19-MEL > 100 µM | SNB-78 > 100 µM

C=C(C)C(=O)OC1C/C(CO)=C\C(O)C/C(C)=C/C2OC(=O)C(=C)C21 (stereo unspecified)
inactive: DMS-114 23.7 µM | HOP-18 31.3 µM | KM-20L2 30.3 µM | LXFL 529 16.9 µM | M19-MEL 25.6 µM | RXF 631 18.4 µM | SNB-78 46.3 µM | XF498 15.2 µM

Cc1cccc(Cl)c1NC(N)=S
inactive: DLD-1 57.7 µM | DMS-114 18.5 µM | HOP-18 11.1 µM | KM-20L2 50.8 µM | LXFL 529 31.8 µM | M19-MEL > 100 µM | RXF 631 35.9 µM | SNB-78 77.1 µM

O=c1cccccc1NCCOCCNc1cccccc1=O
inactive: DLD-1 > 100 µM | DMS-114 > 100 µM | HOP-18 29 µM | KM-20L2 > 100 µM | LXFL 529 > 100 µM | M19-MEL > 100 µM | SNB-78 > 100 µM

O=C1N[C@@H]2CCCC[C@@H]2C12CCCCC2
inactive: DLD-1 > 100 µM | HOP-18 > 100 µM | KM-20L2 > 100 µM | LXFL 529 > 100 µM | M19-MEL > 100 µM | RXF 631 > 100 µM | SNB-78 > 100 µM | XF498 > 100 µM

COC(=O)c1sc(C(=O)OC)c2c1C[S+]([O-])C2
inactive: DLD-1 > 100 µM | DMS-114 > 100 µM | HOP-18 > 100 µM | KM-20L2 > 100 µM | LXFL 529 > 100 µM | M19-MEL > 100 µM | RXF 631 > 100 µM | SNB-78 > 100 µM | XF498 38.7 µM

N/C(=N\O)N/N=C\c1c(O)cc(O)cc1O
inactive: DLD-1 > 82.8 µM | DMS-114 44.2 µM | HOP-18 > 64 µM | KM-20L2 > 100 µM | M19-MEL > 71.8 µM | SNB-78 > 100 µM

CC1=C2C(O)C(C(C)C(=O)NCC(C)C)CCC2(C)C=CC1=O (stereo unspecified)
inactive: DLD-1 > 100 µM | DMS-114 > 100 µM | HOP-18 > 100 µM | KM-20L2 > 100 µM | M19-MEL > 100 µM | SNB-78 > 100 µM | XF498 > 100 µM

O=C1c2ccccc2OCC1/C=N/O (stereo unspecified)
inactive: DLD-1 > 91.4 µM | DMS-114 36.4 µM | HOP-18 > 100 µM | M19-MEL 70.1 µM | SNB-78 > 72.9 µM | XF498 > 100 µM

CN(C)c1ccc(O[Si](Oc2ccc(N(C)C)cc2)(Oc2ccc(N(C)C)cc2)Oc2ccc(N(C)C)cc2)cc1
inactive: DLD-1 > 100 µM | DMS-114 46.5 µM | HOP-18 > 100 µM | KM-20L2 > 100 µM | LXFL 529 50.9 µM | M19-MEL > 100 µM | XF498 44.4 µM

O=C(NCCO)c1cc2c(cn1)[nH]c1ccccc12
inactive: DLD-1 24.7 µM | DMS-114 > 100 µM | KM-20L2 > 100 µM | LXFL 529 > 100 µM | RXF 631 > 100 µM | SNB-78 > 100 µM | XF498 > 100 µM

CCCCCCCC(=O)OC(COC(=O)Cc1ccccc1)COC(=O)C(C)(C)C (stereo unspecified)
inactive: DLD-1 > 100 µM | DMS-114 > 100 µM | HOP-18 > 100 µM | KM-20L2 > 100 µM | LXFL 529 95.3 µM | M19-MEL > 100 µM | RXF 631 > 100 µM

O=C(/N=C(/Nc1ccccc1)SCS/C(=N\C(=O)c1ccco1)Nc1ccccc1)c1ccco1
inactive: DLD-1 44 µM | DMS-114 52 µM | KM-20L2 > 100 µM | LXFL 529 > 100 µM | M19-MEL > 100 µM | RXF 631 94.4 µM | SNB-78 37.1 µM | XF498 25.4 µM

CCN(CC)c1ccc(/N=N\c2ccc(-c3nc4ccc[n+](C)c4s3)cc2)cc1
inactive: HOP-18 16.7 µM | KM-20L2 6.78 µM | LXFL 529 3.24 µM | M19-MEL 3.55 µM | SNB-78 4.37 µM

CC#N.O[C@@H]1CCCC[C@H]1O.O[C@@H]1CCCC[C@H]1O.[TeH2]
inactive: DLD-1 32.2 µM | DMS-114 44.7 µM | HOP-18 23.3 µM | KM-20L2 69.7 µM | LXFL 529 37.7 µM | M19-MEL 21.5 µM | RXF 631 22.8 µM | SNB-78 > 100 µM
